Cl.NCCCC[C@H](N)C(=O)O
Conditions	solubility (mole fraction)
in DMSO, 282.8 K	0.0179
in DMSO, 288.2 K	0.0243
in DMSO, 293 K	0.0301
in DMSO, 298.1 K	0.0357
in DMSO, 303.3 K	0.0391
in DMSO, 308.4 K	0.0432
in DMSO, 312.8 K	0.0469
in DMSO, 318.1 K	0.0516
in DMSO, 323.2 K	0.0529
in DMSO, 328.3 K	0.0561
in ethanol, 288.1 K	6.71e-06
in ethanol, 292.8 K	8.31e-06
in ethanol, 298.1 K	9.91e-06
in ethanol, 303 K	1.09e-05
in ethanol, 308.1 K	1.22e-05
in ethanol, 312.7 K	1.41e-05
in ethanol, 318.2 K	1.63e-05
in ethanol, 322.9 K	1.76e-05
in ethanol, 328.3 K	1.92e-05
in ethylene glycol, 282.9 K	0.00769
in ethylene glycol, 288 K	0.0108
in ethylene glycol, 293.1 K	0.0146
in ethylene glycol, 298.2 K	0.0183
in ethylene glycol, 303.2 K	0.022
in ethylene glycol, 307.9 K	0.0259
in ethylene glycol, 312.9 K	0.0298
in ethylene glycol, 318 K	0.0326
in ethylene glycol, 322.7 K	0.0354
in ethylene glycol, 328.1 K	0.0377
in methanol, 297.9 K	0.000283
in methanol, 303 K	0.000368
in methanol, 308.1 K	0.000433
in methanol, 312.8 K	0.000501
in methanol, 318.1 K	0.00055
in methanol, 323 K	0.000592
in methanol, 327.8 K	0.000637
in water, 283 K	0.0497
in water, 288.1 K	0.0543
in water, 292.9 K	0.0587
in water, 298.1 K	0.0618
in water, 302.8 K	0.0627
in water, 308 K	0.0707
in water, 313.3 K	0.0833
in water, 317.9 K	0.0925
in water, 323 K	0.102
in water, 328.2 K	0.111

Source: BigSolDB 2.1
